Experimental data reported in patent publication US20190233884A1 (University of Southern California, priority 2016, published 2019).

System: patients with refractory metastatic colorectal cancer (mCRC)
Experiment: PFS, OS and disease control in the training (evaluation) cohort of refractory mCRC patients receiving TAS-102 (n=52, Japan), by baseline characteristics, SNP genotype and toxicity
Format: in vivo, human
Settings: evaluation cohort; for HR OS (95% CI) / HR PFS (95% CI): XRCC3 rs861539 G/A vs G/G (Ref.)
Method: All patients underwent the treatment in salvage-line setting. […]
(§1) Genomic DNA was extracted from peripheral whole blood in patients of all cohorts using the QIAmp Kit (Qiagen, Valencia, Calif., USA) according to the manufacturer's protocol (www.qiagen.com). The candidate SNPs were genotyped using PCR-based direct DNA sequence analysis by ABI 3100A Capillary Genetic Analyzer and Sequencing Scanner v1.0 (Applied Biosystems). Amplification of extracted DNA was carried out using both forward and reverse primers for each gene polymorphism as shown in Table 1. […] The investigators analyzing SNPs were blinded to the clinical data of the study patients.
The primary endpoint in this study was progression-free survival (PFS), and the secondary endpoints were overall survival (OS) and disease control rate (DCR). PFS was calculated from the date of starting treatment to the first observation of disease progression or death from any cause. If a patient had no disease progression or death, PFS was censored at the date of last follow up. OS was calculated from the date of starting treatment until the date of death from any cause or the date of the last follow-up, at which point OS was censored. The disease control rate (DCR) was defined as the proportion of patients who achieved a stable disease (SD) or […] according to RECISTv1.1. Chi-square test was used to examine the difference in baseline patient characteristics among the three cohorts. Allelic distribution of all SNPs by ethnicity for deviation from Hardy-Weinberg equilibrium and the allelic frequencies of SNPs were tested using the Chi-square tests with one degree of freedom. The associations between candidate SNPs and disease control, and toxicities were examined using contingency tables and Fisher's exact test. The associations of SNPs with PFS and OS were analysed using Kaplan-Meier curves and the log-rank test. Because the true mode of inheritance of candidate SNPs was not established yet, a codominant or dominant genetic model if appropriate was considered.
All patients underwent the treatment in salvage-line setting. […] In all patients, adverse events were graded according to the Common Terminology Criteria for Adverse Events, version 4.0. […]
as §1, with “tested” for “genotyped”, “Biosystems).” for “Biosystems). Amplification of extracted DNA was carried out using both forward and reverse primers for each gene polymorphism as shown in Table 1.”, “data.” for “data of the study patients.”
The primary endpoint in this study was progression-free survival (PFS), and the secondary endpoints were overall survival (OS) and disease control rate (DCR).

[1] = Adjuvant history No vs Yes, univariate
[2] = Histology Mod-por vs well, univariate
[3] = KRAS Mutant vs Wild type, univariate
[4] = LN metastasis No vs Yes, univariate
[5] = Liver metastasis No vs Yes, univariate
[6] = Lung metastasis No vs Yes, univariate
[7] = Number of metastases >2 vs ≤2, univariate

Substance: Trifluridine/tipiracil [TAS-102]
- PD, patients n (%) (Pin1 rs2233679 T/T): 4 (57%)
- Disease Control Rate SD, patients n (%) (RAD51 rs1801320 G/C): 3 (43%)
- PD, patients n (%) (RAD51 rs1801320 G/C): 4 (57%)
- Disease Control Rate SD, patients n (%) (RAD51 rs1801320 G/G): 12 (31%)
- PD, patients n (%) (RAD51 rs1801320 G/G): 27 (69%)
- Disease Control CR/PR/SD, patients n (%) (XRCC3 rs861539 G/A): 7 (44%)
- Median PFS (95% CI) (XRCC3 rs861539 G/A): 3.8 (1.6, 6.6) months
- OS (XRCC3 rs861539 G/A): 15.6 months
- PD, patients n (%) (XRCC3 rs861539 G/A): 9 (56%)
- HR OS (95% CI) (multivariable): 0.31 (0.09, 1.03)
- HR PFS (95% CI) (multivariable): 0.52 (0.24, 1.11)
- HR OS (95% CI) (univariate): 0.25 (0.08, 0.79)
- HR PFS (95% CI) (univariate): 0.44 (0.21, 0.92)
- Disease Control CR/PR/SD, patients n (%) (XRCC3 rs861539 G/G): 8 (27%)
- Median OS (95% CI) (XRCC3 rs861539 G/G): 6.3 (4.9, 12.4+) months
- Median PFS (95% CI) (XRCC3 rs861539 G/G): 2.3 (1.9, 3.3) months
- OS (XRCC3 rs861539 G/G): 6.3 months
- PD, patients n (%) (XRCC3 rs861539 G/G): 22 (73%)
- Disease Control Rate SD, patients n (%) (p21 rs1059234 Any C): 10 (29%)
- PD, patients n (%) (p21 rs1059234 Any C): 25 (71%)
- Disease Control Rate SD, patients n (%) (p21 rs1059234 C/C): 4 (31%)
- PD, patients n (%) (p21 rs1059234 C/C): 9 (69%)
- Disease Control Rate SD, patients n (%) (p21 rs1059234 T/C): 6 (27%)
- PD, patients n (%) (p21 rs1059234 T/C): 16 (73%)
- Disease Control Rate SD, patients n (%) (p21 rs1059234 T/T): 5 (45%)
- PD, patients n (%) (p21 rs1059234 T/T): 6 (55%)
- Disease Control Rate SD, patients n (%) (p21 rs1801270 A/A): 4 (31%)
- PD, patients n (%) (p21 rs1801270 A/A): 9 (69%)
- Disease Control Rate SD, patients n (%) (p21 rs1801270 A/C): 6 (29%)
- PD, patients n (%) (p21 rs1801270 A/C): 15 (71%)
- Disease Control Rate SD, patients n (%) (p21 rs1801270 Any C): 11 (33%)
- PD, patients n (%) (p21 rs1801270 Any C): 22 (67%)
- Disease Control Rate SD, patients n (%) (p21 rs1801270 C/C): 5 (42%)
- PD, patients n (%) (p21 rs1801270 C/C): 7 (58%)
- Disease Control Rate SD, patients n (%) (p53 rs1042522 Any G): 9 (35%)
- PD, patients n (%) (p53 rs1042522 Any G): 17 (65%)
- Disease Control Rate SD, patients n (%) (p53 rs1042522 C/C): 6 (30%)
- PD, patients n (%) (p53 rs1042522 C/C): 14 (70%)
- Disease Control Rate SD, patients n (%) (p53 rs1042522 G/G): 2 (33%)
- PD, patients n (%) (p53 rs1042522 G/G): 4 (67%)
- HR for OS (ATM rs609429, multivariable adjusted for liver metastases and adjuvant history): 0.24
- HR for OS (ATM rs609429 any G vs C/C, univariate): 0.37
- Overall Survival Median, months (Adjuvant history No): 6.3 months
- Progression-Free Survival Median, months (Adjuvant history No): 2.1 months
- Overall Survival HR [1]: 2.44
- Progression-Free Survival HR [1]: 1.90
- Overall Survival Median, months (Adjuvant history Yes): 8.7 months
- Progression-Free Survival Median, months (Adjuvant history Yes): 3.7 months
- Overall Survival Median, months (Age <61): 8.1 months
- Progression-Free Survival Median, months (Age <61): 2.2 months
- Overall Survival Median, months (Age ≥61): 6.3 months
- Progression-Free Survival Median, months (Age ≥61): 3.0 months
- Overall Survival HR (Age ≥61 vs <61, univariate): 1.30
- Progression-Free Survival HR (Age ≥61 vs <61, univariate): 0.81
- PFS (CHEK2 rs2267130 any C allele): 3.4 months
- HR for PFS (CHEK2 rs2267130 any C vs T/T, univariate): 0.48
- Overall Survival Median, months (Histology Mod-por): 8.7 months
- Progression-Free Survival Median, months (Histology Mod-por): 3.0 months
- Overall Survival HR [2]: 0.52
- Progression-Free Survival HR [2]: 0.94
- Overall Survival Median, months (Histology well): 6.3 months
- Progression-Free Survival Median, months (Histology well): 2.1 months
- Overall Survival Median, months (KRAS Mutant): 8.3 months
- Progression-Free Survival Median, months (KRAS Mutant): 3.3 months
- Overall Survival HR [3]: 0.42
- Progression-Free Survival HR [3]: 0.51
- Overall Survival Median, months (KRAS Wild type): 7.2 months
- Progression-Free Survival Median, months (KRAS Wild type): 2.1 months
- Overall Survival Median, months (LN metastasis No): 7.2 months
- Progression-Free Survival Median, months (LN metastasis No): 2.5 months
- Overall Survival HR [4]: 1.06
- Progression-Free Survival HR [4]: 1.27
- Overall Survival Median, months (LN metastasis Yes): 8.3 months
- Progression-Free Survival Median, months (LN metastasis Yes): 3.0 months
- Overall Survival Median, months (Liver metastasis No): 8.7 months
- Progression-Free Survival Median, months (Liver metastasis No): 4.2 months
- Overall Survival HR [5]: 0.57
- Progression-Free Survival HR [5]: 0.43
- Overall Survival Median, months (Liver metastasis Yes): 7.2 months
- Progression-Free Survival Median, months (Liver metastasis Yes): 2.3 months
- Overall Survival Median, months (Lung metastasis No): 6.3 months
- Progression-Free Survival Median, months (Lung metastasis No): 2.5 months
- Overall Survival HR [6]: 1.44
- Progression-Free Survival HR [6]: 1.19
- Overall Survival Median, months (Lung metastasis Yes): 8.3 months
- Progression-Free Survival Median, months (Lung metastasis Yes): 2.9 months
- Overall Survival Median, months (Number of metastases >2): 8.1 months
- Progression-Free Survival Median, months (Number of metastases >2): 2.9 months
- Overall Survival HR [7]: 1.63
- Progression-Free Survival HR [7]: 1.22
